Series [1] concerns the target T1, Protein cereblon/Cyclic GMP-AMP synthase (Homo sapiens, UniProt Q96SW2+Q8N884). The series can be described thus: PROTAC activity at CRBN/cGAS in human THP-1 cells assessed as induction of cGAS degradation at 10 uM incubated for 48 hrs by Western blot analysis. In kind it is cell-based. For orientation: In western blotting, separated proteins are transferred to a membrane and probed.

A short description of series [2]: Inhibition of dsDNA-induced cGAS signaling pathway in mouse RAW-Lucia ISG cells preincubated with compound for 24 hrs followed by HT-DNA addition and measured after 24 hrs by QUANTI-Luc luciferase reagent based assay. It is filed as cell-based.
A short description of series [3]: Inhibition of dsDNA-induced cGAS signaling pathway in human THP1-Lucia ISG cells preincubated with compound for 24 hrs followed by HT-DNA addition and measured after 24 hrs by QUANTI-Luc luciferase reagent based assay. It is filed as cell-based.
In series [4] the target is T1, Protein cereblon/Cyclic GMP-AMP synthase. The series can be described thus: PROTAC activity at CRBN/cGAS in human THP-1 cells assessed as induction of cGAS degradation at 10 uM preincubated with compound for 40 hrs followed by HT-DNA stimulation and measured after 8 hrs by Western blot analysis relative to control. In kind it is cell-based. The following applies: time 48.0 hrs.

Series [5] relates to Mus musculus. The series can be described thus: Anti-inflammatory activity in DSS-induced ulcerative colitis C57BL/6 mouse model assessed as reduction in NET generation by measuring reduction in citH3 level in colon at 50 mg/kg/day, ip preadministered with DSS for 7 days followed by replacement with ultrapure water for 3 days with subsequent compound administration starting from day 4 to 10 and measured on day 11 by Western blot analysis. The settings on record: time 8.0 day. It is filed as functional, organism-based.

Series [6] deals with T2, Protein cereblon/Cyclic GMP-AMP synthase (Mus musculus) (UniProt Q8C6L5+Q8C7D2). Kind of series: In vivo inhibition of cGAS signaling pathway in DSS-induced ulcerative colitis C57BL/6 mouse model assessed as reduction in cGAS protein level in colon at 50 mg/kg/day, ip preadministered with DSS for 7 days followed by replacement with ultrapure water for 3 days with subsequent compound administration starting from day 4 to 10 and measured on day 11 by Western blot analysis. It is filed as functional, organism-based. The following applies: time 8.0 day.

The subject of series [7] is THP-1. Kind of series: Cytotoxicity against human THP-1 cells assessed as reduction in cell viability at >30 uM incubated for 48 hrs by CCK8 assay. The following applies: thp-1, 48 h. It is filed as toxicity, cell-based. For orientation: Formazan colour is commonly taken as a measure of viable cells.
In series [8] the test system is THP-1. Kind of series: Induction of cGAS degradation in human THP-1 cells at 10 uM preincubated with compound for 40 hrs followed by HT-DNA stimulation and measured after 8 hrs by Western blot analysis relative to control. It is filed as cell-based. The following applies: time 48.0 hrs.
In series [9] the test system is Mus musculus. Kind of series: Anti-inflammatory activity in DSS-induced ulcerative colitis C57BL/6 mouse model assessed as reduction in NET generation by measuring reduction in citH3 level in colon at 200 mg/kg/day, po preadministered with DSS for 7 days followed by replacement with ultrapure water for 3 days with subsequent compound administration starting from day 4 to 10 and measured on day 11 by Western blot analysis. It is filed as functional, organism-based. The following applies: time 8.0 day.

Series [10] addresses T2, Protein cereblon/Cyclic GMP-AMP synthase (Mus musculus). The series can be described thus: In vivo inhibition of cGAS signaling pathway in DSS-induced ulcerative colitis C57BL/6 mouse model assessed as reduction in cGAS protein level in colon at 200 mg/kg/day, po preadministered with DSS for 7 days followed by replacement with ultrapure water for 3 days with subsequent compound administration starting from day 4 to 10 and measured on day 11 by Western blot analysis. The settings on record: time 8.0 day. In kind it is functional, organism-based.

Calls of active or inactive are those of the source. The calls are words filed in the database; no cut-off is given here.

For 29 compounds, Activity, IC50 and inhibition results are on record in ChEMBL document CHEMBL6103619, “Discovery of a Novel CRBN-Recruiting cGAS PROTAC Degrader for the Treatment of Ulcerative Colitis” (J Med Chem, 2025).

In general, IC50 refers to the concentration needed to halve the response being measured.

T1 sequence (Q8N884 whole entry, looked up): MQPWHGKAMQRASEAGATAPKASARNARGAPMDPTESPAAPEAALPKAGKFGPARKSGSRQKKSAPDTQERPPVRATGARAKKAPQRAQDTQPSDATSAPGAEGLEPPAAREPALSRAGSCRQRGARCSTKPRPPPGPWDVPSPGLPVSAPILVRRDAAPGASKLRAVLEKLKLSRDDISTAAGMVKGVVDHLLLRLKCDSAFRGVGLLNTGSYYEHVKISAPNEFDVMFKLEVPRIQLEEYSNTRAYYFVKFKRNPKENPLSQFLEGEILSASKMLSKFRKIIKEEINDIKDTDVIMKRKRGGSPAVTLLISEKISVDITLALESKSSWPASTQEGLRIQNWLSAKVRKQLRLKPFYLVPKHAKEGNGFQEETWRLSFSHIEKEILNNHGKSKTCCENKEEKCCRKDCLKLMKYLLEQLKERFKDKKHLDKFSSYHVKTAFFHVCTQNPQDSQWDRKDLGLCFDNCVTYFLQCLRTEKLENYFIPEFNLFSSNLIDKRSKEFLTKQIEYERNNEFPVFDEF
T1 sequence (Q96SW2 whole entry, looked up): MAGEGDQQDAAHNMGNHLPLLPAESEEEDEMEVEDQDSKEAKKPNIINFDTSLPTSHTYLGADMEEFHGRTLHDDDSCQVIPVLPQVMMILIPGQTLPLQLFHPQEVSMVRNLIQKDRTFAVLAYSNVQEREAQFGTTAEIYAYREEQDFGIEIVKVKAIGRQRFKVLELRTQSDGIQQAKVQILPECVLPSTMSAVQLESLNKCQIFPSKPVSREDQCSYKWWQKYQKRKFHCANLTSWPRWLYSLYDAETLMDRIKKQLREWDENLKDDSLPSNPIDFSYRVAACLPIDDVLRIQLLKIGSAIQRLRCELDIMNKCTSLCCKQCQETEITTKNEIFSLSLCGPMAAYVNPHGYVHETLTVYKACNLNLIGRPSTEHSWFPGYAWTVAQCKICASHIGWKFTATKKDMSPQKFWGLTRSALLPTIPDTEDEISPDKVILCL
T2 sequence (Q8C6L5 whole entry, looked up): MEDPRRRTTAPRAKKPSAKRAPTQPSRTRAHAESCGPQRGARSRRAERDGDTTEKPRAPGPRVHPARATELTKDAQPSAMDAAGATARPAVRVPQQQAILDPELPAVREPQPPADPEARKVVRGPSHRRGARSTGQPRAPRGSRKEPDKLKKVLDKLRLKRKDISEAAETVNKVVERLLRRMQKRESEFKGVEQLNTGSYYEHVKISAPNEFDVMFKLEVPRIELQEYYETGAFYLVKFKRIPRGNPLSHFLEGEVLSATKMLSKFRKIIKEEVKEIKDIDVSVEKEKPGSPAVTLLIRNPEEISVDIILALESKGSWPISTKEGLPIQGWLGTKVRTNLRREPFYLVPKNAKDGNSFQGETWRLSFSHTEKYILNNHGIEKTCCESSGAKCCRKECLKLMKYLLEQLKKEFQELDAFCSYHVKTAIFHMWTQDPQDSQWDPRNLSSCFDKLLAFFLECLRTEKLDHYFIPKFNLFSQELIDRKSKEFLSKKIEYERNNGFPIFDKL
T2 sequence (Q8C7D2 whole entry, looked up): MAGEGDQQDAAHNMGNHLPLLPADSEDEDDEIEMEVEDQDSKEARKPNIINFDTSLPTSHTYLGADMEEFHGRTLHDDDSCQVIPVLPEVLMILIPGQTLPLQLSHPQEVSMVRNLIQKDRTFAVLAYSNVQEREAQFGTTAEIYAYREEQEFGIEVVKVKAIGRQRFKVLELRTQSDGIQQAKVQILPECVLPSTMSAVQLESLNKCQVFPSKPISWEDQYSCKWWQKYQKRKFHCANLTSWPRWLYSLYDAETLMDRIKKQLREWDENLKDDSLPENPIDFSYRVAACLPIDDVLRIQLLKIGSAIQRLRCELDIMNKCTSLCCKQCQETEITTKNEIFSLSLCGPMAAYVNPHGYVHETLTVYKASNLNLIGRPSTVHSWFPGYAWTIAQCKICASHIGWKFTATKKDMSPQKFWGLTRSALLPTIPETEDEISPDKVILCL

As for `CN1C(=O)CCC(N2Cc3c(C#CCCCC(=O)NCC(=O)N4CCc5[nH]c6c(Cl)c(Cl)cc(-c7ccn(C)n7)c6c5C4)cccc3C2=O)C1=O` (stereo not drawn), in [1], the result was inactive.

For `Cn1ccc(-c2cc(Cl)c(Cl)c3[nH]c4c(c23)CN(C(=O)CNC(=O)CC2CCN(C(=O)COc3cccc5c3C(=O)N(C3CCC(=O)NC3=O)C5=O)CC2)CC4)n1` (stereo not drawn), the IC50 in series [2] and in series [3] was above 50 µM each time. Besides, the Activity in [4] is 6.3%.

Turning to `Cn1ccc(-c2cc(Cl)c(Cl)c3[nH]c4c(c23)CN(C(=O)CNC(=O)COCCOCCNc2cccc3c2C(=O)N(C2CCC(=O)NC2=O)C3=O)CC4)n1` (stereo not drawn), the values for the IC50 in [2] and in [3] were above 50 µM and 27.4 µM, respectively. Further, the Activity in series [4] was 46.8%.

For `Cn1ccc(-c2cc(Cl)c(Cl)c3[nH]c4c(c23)CN(C(=O)CO)CC4)n1`, in the series on Mus musculus [5], the result was Active. Besides, the IC50 was determined as 13.1 µM in series [2] and 4.1 µM in series [3]. For the same compound, the inhibition entry in series [6] was “Active; Minor Changes Observed”. Besides, the Activity entry in the series with THP-1 [7] is “Toxic”; in the series with THP-1 [8] it was 8.3%. Also, the outcome in [1] was inactive.

As to `O=C1CCC(N2C(=O)c3cccc(NCCOCCOCCOCCOCCOCCC(=O)N4CCC(Cn5cc(-c6cc(Cl)c(Cl)c7[nH]c8c(c67)CN(C(=O)CO)CC8)cn5)CC4)c3C2=O)C(=O)N1` (stereo not drawn), the IC50 in series [2] and in series [3] was above 50 µM in each case. The Activity in series [4] was 10.4%.

`Nc1cccc2c1CN(C1CCC(=O)NC1=O)C2=O` (stereo not drawn) [LENALIDOMIDE]: the IC50 in series [2] and in [3] was above 50 µM throughout. Also, in the series on THP-1 [8], the Activity was 0.3%.

For `O=C1CCC(N2C(=O)c3cccc(NCCCCCC(=O)N4CCC(Cn5cc(-c6cc(Cl)c(Cl)c7[nH]c8c(c67)CN(C(=O)CO)CC8)cn5)CC4)c3C2=O)C(=O)N1` (stereo not drawn), the IC50 in series [2] was found to be 39.8 µM; in series [3], 20.5 µM. Also, the Activity in series [4] was 57.7%.

On to `Cn1ccc(-c2cc(Cl)c(Cl)c3[nH]c4c(c23)CN(C(=O)CNC(=O)CCOCCOCCOCCOCCNc2cccc3c2C(=O)N(C2CCC(=O)NC2=O)C3=O)CC4)n1` (stereo not drawn), for which the IC50 in [2] and in series [3] was above 50 µM each time. For the same compound, the Activity in series [4] stood at 20.5%.

Regarding `Cn1ccc(-c2cc(Cl)c(Cl)c3[nH]c4c(c23)CN(C(=O)CNC(=O)CN2CCN(C(=O)COc3cccc5c3C(=O)N(C3CCC(=O)NC3=O)C5=O)CC2)CC4)n1` (stereo not drawn), the half-inhibitory concentration (IC50) in series [2] and in series [3] was above 50 µM each time. In addition, the Activity in series [4] stood at 18.7%.

Consider `Cn1ccc(-c2cc(Cl)c(Cl)c3[nH]c4c(c23)CN(C(=O)CNC(=O)CCCCC#Cc2cccc3c2C(=O)N(C2CCC(=O)NC2=O)C3=O)CC4)n1` (stereo not drawn), for which the IC50 was above 50 µM in series [2] and 18.9 µM in series [3]. Moreover, the Activity in series [4] came to 48.5%.

In the case of `Cn1ccc(-c2cc(Cl)c(Cl)c3[nH]c4c(c23)CN(C(=O)CNC(=O)CCCCCCCCCCNc2cccc3c2C(=O)N(C2CCC(=O)NC2=O)C3=O)CC4)n1` (stereo not drawn), the IC50 in series [2] is above 50 µM; in series [3], 38.8 µM. For the same compound, the Activity in [4] came out at 20.4%.

Take `Cn1ccc(-c2cc(Cl)c(Cl)c3[nH]c4c(c23)CN(C(=O)CNC(=O)CCCCCCNc2cccc3c2C(=O)N(C2CCC(=O)NC2=O)C3=O)CC4)n1` (stereo not drawn): the IC50 in series [2] was 28.3 µM; in series [3], 16.3 µM. The Activity in [4] turned out to be 55.1%.

Take `Cn1ccc(-c2cc(Cl)c(Cl)c3[nH]c4c(c23)CN(C(=O)CNC(=O)CCCCCCCCCCCNc2cccc3c2C(=O)N(C2CCC(=O)NC2=O)C3=O)CC4)n1` (stereo not drawn): the IC50 in [2] and in series [3] was above 50 µM in each case. The Activity in series [4] was 4.3%.

`Cn1ccc(-c2cc(Cl)c(Cl)c3[nH]c4c(c23)CN(C(=O)CNC(=O)CCNc2cccc3c2C(=O)N(C2CCC(=O)NC2=O)C3=O)CC4)n1` (stereo not drawn): the IC50 in [2] is above 50 µM; in [3], 35.1 µM. Further, the Activity in [4] was determined as 42%.

In the case of `O=C1CCC(N2C(=O)c3cccc(NCCCCCCC(=O)N4CCC(Cn5cc(-c6cc(Cl)c(Cl)c7[nH]c8c(c67)CN(C(=O)CO)CC8)cn5)CC4)c3C2=O)C(=O)N1` (stereo not drawn), the IC50 in [2] was above 50 µM; in [3], 25.8 µM. In addition, the Activity in series [4] worked out at 44.7%.

In the case of `Cn1ccc(-c2cc(Cl)c(Cl)c3[nH]c4c(c23)CN(C(=O)CNC(=O)CCN2CCN(C(=O)COc3cccc5c3C(=O)N(C3CCC(=O)NC3=O)C5=O)CC2)CC4)n1` (stereo not drawn), the IC50 in series [2] and in series [3] was above 50 µM in each case. Moreover, the Activity in [4] amounted to 15.1%.

Turning to `Cn1ccc(-c2cc(Cl)c(Cl)c3[nH]c4c(c23)CN(C(=O)CNC(=O)CCCNc2cccc3c2C(=O)N(C2CCC(=O)NC2=O)C3=O)CC4)n1` (stereo not drawn), the IC50 in [2] amounted to 25.6 µM; in series [3], 12.2 µM. Further, the Activity in series [4] turned out to be 58.7%.

In the case of `O=C1CCC(N2C(=O)c3cccc(NCCCCCCCC(=O)N4CCC(Cn5cc(-c6cc(Cl)c(Cl)c7[nH]c8c(c67)CN(C(=O)CO)CC8)cn5)CC4)c3C2=O)C(=O)N1` (stereo not drawn), the IC50 in [2] and in [3] was above 50 µM throughout. In addition, in series [4], the Activity worked out at 35.6%.

Consider `O=C1CCC(N2C(=O)c3cccc(NCCOCCOCCOCCOCCOCCOCCOCCOCCC(=O)N4CCC(Cn5cc(-c6cc(Cl)c(Cl)c7[nH]c8c(c67)CN(C(=O)CO)CC8)cn5)CC4)c3C2=O)C(=O)N1` (stereo not drawn), for which the IC50 in [2] and in series [3] was above 50 µM throughout. Besides, the Activity in [4] is 4.6%.

With `Cn1ccc(-c2cc(Cl)c(Cl)c3[nH]c4c(c23)CN(C(=O)CNC(=O)CCCCC#Cc2cccc3c2CN(C2CCC(=O)NC2=O)C3=O)CC4)n1` (stereo not drawn), the 50% inhibitory concentration (IC50) in [2] was 15.1 µM; in series [3] it was 8.8 µM. In addition, the Activity in series [4] was determined as 57.7%.

As to `Cn1ccc(-c2cc(Cl)c(Cl)c3[nH]c4c(c23)CN(C(=O)CNC(=O)CCCCCCCCCNc2cccc3c2C(=O)N(C2CCC(=O)NC2=O)C3=O)CC4)n1` (stereo not drawn), the IC50 in [2] and in [3] was above 50 µM throughout. The Activity in series [4] amounted to 12.4%.

For `Cn1ccc(-c2cc(Cl)c(Cl)c3[nH]c4c(c23)CN(C(=O)CNC(=O)CCCC#Cc2ccc3c(c2)CN(C2CCC(=O)NC2=O)C3=O)CC4)n1` (stereo not drawn), the 50% inhibitory concentration (IC50) in series [2] and in [3] was above 50 µM in each case. Besides, the Activity in [4] stood at 25.6%.

For `O=C1CCC(N2C(=O)c3cccc(NCCCCCCCCC(=O)N4CC(Cn5cc(-c6cc(Cl)c(Cl)c7[nH]c8c(c67)CN(C(=O)CO)CC8)cn5)C4)c3C2=O)C(=O)N1` (stereo not drawn), the IC50 in [2] and in [3] was above 50 µM in each case. Also, the Activity in [4] was 21.2%.

On to `O=C1CCC(N2C(=O)c3cccc(NCCOCCOCCOCC(=O)N4CCC(Cn5cc(-c6cc(Cl)c(Cl)c7[nH]c8c(c67)CN(C(=O)CO)CC8)cn5)CC4)c3C2=O)C(=O)N1` (stereo not drawn), for which the IC50 in series [2] and in series [3] was above 50 µM in each case. The Activity in series [4] is 13.9%.

As for `O=C1CCC(N2C(=O)c3cccc(NCCCC(=O)N4CCC(Cn5cc(-c6cc(Cl)c(Cl)c7[nH]c8c(c67)CN(C(=O)CO)CC8)cn5)CC4)c3C2=O)C(=O)N1` (stereo not drawn), the IC50 in series [2] and in series [3] was above 50 µM each time. For the same compound, the Activity in [4] was 4.7%.

`O=C1CCC(N2C(=O)c3cccc(NCCCCCC(=O)N4CC(Cn5cc(-c6cc(Cl)c(Cl)c7[nH]c8c(c67)CN(C(=O)CO)CC8)cn5)C4)c3C2=O)C(=O)N1` (stereo not drawn): the IC50 in [2] and in series [3] was above 50 µM each time. Also, the Activity in series [4] came to 36.3%.

On to `Nc1ccc(O)c(C(=O)O)c1`, for which the result in the series on Mus musculus [9] was Active. The inhibition entry in [10] is reported as “Active; Minor Changes Observed”.

In the case of `Cn1ccc(-c2cc(Cl)c(Cl)c3[nH]c4c(c23)CN(C(=O)CCCCC#Cc2cccc3c2CN(C2CCC(=O)NC2=O)C3=O)CC4)n1` (stereo not drawn), the figures for the IC50 in series [2] and in [3] were above 50 µM and 28.4 µM, respectively. Besides, the Activity in series [4] was found to be 45.1%.

`Cn1ccc(-c2cc(Cl)c(Cl)c3[nH]c4c(c23)CN(C(=O)CNC(=O)CCCC#Cc2cccc3c2C(=O)N(C2CCC(=O)NC2=O)C3=O)CC4)n1` (stereo not drawn): the half-maximal inhibitory concentration (IC50) in [2] amounted to 30.8 µM; in [3], 12.8 µM. The Activity in [4] came to 56.1%.
